Assay results taken from patent US20250041356A1, “COMBINATION CANCER THERAPY” (Prokarium Limited, priority 2021, published 2025).

Assays:
[1] = tested on: 4T1-Luc2-1A4 tumour cells; conditions: monitored over 52 days; log-rank (Mantel-Cox) test
Procedure: Dilutions of the attenuated Salmonella Typhimurium strain (MD58) were made in PBS as required to achieve 1×10^9 CFU/100 μl for oral gavage.
6-7-week-old female BALB/c mice were pre-treated orally with 1×10^9 CFU Salmonella MD58 or PBS control. On day 0 mice were inoculated in mammary fat pad #4 with 5×10^5 4T1-Luc2-1A4 tumour cells. […] Primary tumour volumes were measured 3 times per week, lung tumour burden was measured by bioluminescent imaging (BLI) and survival was monitored until 52 days after tumour inoculation

Primary human monocytes = assay: In vitro conditioning of primary human monocytes, TNFα release after PAMP/DAMP challenge (ELISA); type: cell-based
Procedure: Primary human monocytes were conditioned in vitro with Salmonella for 30 minutes prior to being washed with an antibiotic to remove all Salmonella and subsequently rested for 6 days in the presence of M-CSF. Following the 6 day rest period, the human monocytes were stimulated with PAMPs, DAMPs or a media only control, and the level of TNFα release measured via ELISA.

Row | Molecule | survival compared to PBS+saline control [1] | level of release of TNFα compared to cells treated with media (negative control) (Primary human monocytes; challenge other than PAMPs (DAMPs)) | responsiveness to PAMPs and DAMPs, level of release of TNFα (Primary human monocytes; conditioned 30 minutes, rested 6 days with M-CSF, then challenged)
1 | O=P1(N(CCCl)CCCl)NCCCO1 (stereo not drawn) [PBS+cyclophosphamide, cyclophosphamide] | significantly better survival |  | 
2 | β-glucan |  | no difference | only induces hyperresponsiveness in response to challenge with PAMPs
